Measured values taken from US10408843B2, “Compositions and methods for detecting S-nitrosylation and S-sulfinylation” (The Regents of the University of Michigan, priority 2013, dated 2019).

Legend:
293T cell lysates = assay: SILAC quantitative mass spectrometry of biotin-SO2H enrichment; type: biochemical, human; details: quantified in ≥3 replicates, ≥3 quantified peptides; 400 μM probe
Procedure: FIG. 16. Quantitative analysis of biotin-SO2H enrichment in 293T cell lysates. Samples were prepared in two sets, one with biotin-SO2H in the “Light” matched with biotin-SO3H in the “Heavy” (N=2), and the other in reverse (N=2). Each was ran as two technical replicated and SILAC ratios (biotin-SO2H/biotin-SO3H) were combined across experiments. “Directions Detected” describes the set of SILAC samples where the protein was quantified. FORWARD refers to biotin-SO2H (light)/biotin-SO3H (heavy), and REVERSE is the opposite direction, biotin-SO2H (heavy)/biotin-SO3H (light). […] Label-free quantification was performed using the Top3 method from the biotin-SO2H labeled pair.
Next, biotin-SO2H labeling was combined with stable-isotope labeling with amino acids in cell culture (SILAC) for quantitative mass spectrometry annotation of endogenous S-sulfinylation in mammalian cells. […] Peptides were analyzed using data-independent acquisition methods in combination with ion mobility separation (HDMS^E) and mobility-dependent collision energy assignment for enhanced fragmentation (see, e.g., Distler, U. et al. Nat Methods (2013)). Through a combination of 4 biological replicates, each with 2 technical replicates, a total of 992 proteins were identified with SILAC ratios >5 (biotin-SO2H/biotin-SO3H), quantified in ≥3 replicates, and represented by ≥3 quantified peptides (FIG. 16). […]

Recombinant human GAPDH = target: T1, Recombinant human GAPDH (Homo sapiens, UniProt P04406); assay: Labeling of recombinant GAPDH (in-gel fluorescence, LC-MS); type: biochemical; details: biotin-thiosulfonate modified tryptic peptide
T1 construct: 6His; made in house; host or cells: E. coli BL21
Procedure: FIG. 14. Profiling fluorescein-SO2H reactivity and selectivity on S-nitrosylated GAPDH. Recombinant human GAPDH was resuspended in 6 M urea/PBS, treated with 50 mM iodoacetamide for 30 minutes, and mixed with dimedone, ascorbate, peroxide or NO donor (5 minutes). Fluorescein-SO2H (500 μM) was then added to the GAPDH sample for 45 minutes. S-nitrosylated human GAPDH labeling increases upon incubation with the NO donor MAHMA-NONOate, and decreases following treatment with ascorbate. […] Fluorescein-SO2H labeling is unaffected by pre-incubation with peroxide or dimedone.
FIG. 15. Biotin-SO2H reacts with human GAPDH and forms a thiosulfonate. Recombinant human GADPH was labeled with biotin-SO2H for site-specific analysis of S-nitrosylation by high-resolution mass spectrometry.
Given the efficient and selective conjugation of sulfinic acids and nitrosothiols, recombinant human GAPDH were next purified for targeted analysis of S-sulfinylation with biotin-SO2H. […] Biotin-SO2H-labeled GAPDH protein was digested with trypsin and analyzed by high-resolution mass spectrometry, identifying a biotin-thiosulfonate modified peptide encompassing the GAPDH catalytic cysteine (FIG. 15). […] These studies confirm direct detection of native of S-sulfinylation by sulfinic acid probes for mass spectrometry analysis.
Purified human GAPDH was diluted to 0.2 mg/mL in phosphate buffered saline (pH 7.3), and treated with 20 mM iodoacetamide for 30 minutes. Next, the sample was treated with 100 μM biotin-SO2H. Purified human DJ-1 was diluted to 0.2 mg/mL in PBS, and incubated with 20 mM iodoacetamide to alkylated free thiols. Next, the sample was treated with 2 mM hydrogen peroxide for 20 minutes to promote Cys106 sulfinic acid formation. […] Eluted peptides were analyzed using a Waters Synapt G2-S HDMS time-of-flight mass spectrometer in positive mode. […] MS data was searched using Waters Protein Lynx Global Server v3.0 using the exact mass calculated for the cysteine thiosulfonate modification.

T1 sequence (P04406 whole entry): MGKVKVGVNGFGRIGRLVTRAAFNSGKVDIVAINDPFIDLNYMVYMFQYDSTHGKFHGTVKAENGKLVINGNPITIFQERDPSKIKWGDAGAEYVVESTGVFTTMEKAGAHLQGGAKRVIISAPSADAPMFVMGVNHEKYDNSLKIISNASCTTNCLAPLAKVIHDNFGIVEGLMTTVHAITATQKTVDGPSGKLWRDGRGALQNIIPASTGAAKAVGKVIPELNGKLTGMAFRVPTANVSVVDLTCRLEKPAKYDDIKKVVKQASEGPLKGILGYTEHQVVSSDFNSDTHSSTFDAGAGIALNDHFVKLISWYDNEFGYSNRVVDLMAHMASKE

- modified cysteine of GAPDH identified by MS/MS (Recombinant human GAPDH): Cys156
Structure (SMILES): O=C(CCCC[C@@H]1SC[C@@H]2NC(=O)N[C@@H]21)NCCS(=O)O [biotin-SO2H, 2-(5-((3aS,4S,6aR)-2-oxohexahydro-1H-thieno[3,4-d]imidazol-4-yl)pentanamido)ethanesulfinic Acid]
- proteins identified with SILAC ratios >5 (biotin-SO2H/biotin-SO3H) (293T cell lysates): 992 proteins
